In brackets after ≈: the same amount, converted by molar mass.
Assays:
[1] = tested on: Septoria tritici (ATCC 26517); assay: Minimum Inhibitory Concentration (MIC) vs. Septoria tritici, CLSI-based microdilution; type: cell-based; details: Zymoseptoria tritici, ATCC26517, 168 h; MIC = 50% reduction in growth of S. tritici, 7 days at 22 °C, RPMI/MOPS, 1% DMSO; read-out: Septoria Rating (MIC)
Description: Compounds of the present disclosure were assessed for their ability to inhibit the growth of a common strain of the fungal plant pathogen Septoria tritici (ATCC 26517) using a procedure based on a Clinical and Laboratory Standards Institute (CLSI) microdilution assay protocol for filamentous fungi. Stock solutions of the test compounds and standards were prepared in DMSO at 6400 μg/mL. Each stock solution was used to prepare a 2-fold dilution series ranging from 16 to 0.016 μg/mL (total of 11 compound concentrations) in RPMI-1640 (Roswell Park Memorial Institute) medium containing 3-(N-morpholino)propanesulfonic acid (MOPS) buffer and 2% DMSO. A 100 μL aliquot of the dilutions was added to columns 1 (16 μg/mL compound) through 11 (0.016 μg/mL compound) of a 96-well microtiter plate. This format was replicated in a second row of the microtiter plate. Thus, each microtiter plate could include 11 concentrations of four test or control compounds replicated twice. A 100 μL aliquot of RPMI-1640/MOPS/2% DMSO medium was added to column 12 (no compound control) of the microtiter plate. A fresh culture of S. tritici was used to prepare a solution of approximately 5×10^4 colony-forming units per milliliter (cfu/mL) in RPMI/MOPS medium without DMSO. A 100 μL aliquot of this solution was added to all 96 wells in the microtiter plate. […] In each case of Table 3 the Septoria rating scale is as follows: […]

[2] = tested on: Puccinia recondita tritici = Puccinia triticina (PUCCRT); assay: Fungicidal activity vs. leaf rust on wheat plants (1-day protectant spray); type: in vivo; details: wheat (variety Yuma) sprayed at 50 ppm, inoculated next day, disease severity evaluated 7-9 days later, read-out: Puccinia Rating (% Disease Control @ 50 ppm)
Description: Each pot contained 3-8 seedlings. These plants were sprayed until wet with the formulated test compounds. The compounds were formulated at 50 ppm in 10 vol. % acetone plus 90 vol. % Triton X water (deionized water 99.99 wt %+0.01 wt % Triton X100), giving a “formulated test compound.” Formulated test compounds were applied to plants using a turn table sprayer fitted with two opposing air atomization nozzles which delivered approximately 1500 L/ha of spray volume. On the following day, the leaves were inoculated with an aqueous spore suspension of Puccinia recondita tritici and the plants were kept in high humidity overnight to permit spores to germinate and infect the leaf. The plants were then transferred to a greenhouse until disease developed on untreated control plants. Disease severity was evaluated 7-9 days later, depending on the speed of disease development. In each case of Table 3, the Puccinia rating scale is as follows: […]

T. rubrum = assay: Minimum Inhibitory Concentration (MIC) (T. rubrum), CLSI M27-A2; type: cell-based; details: Trichophyton rubrum; about 50% growth reduction, approx. 96 h at 35 °C, RPMI+MOPS
Description: Compounds of the present disclosure were assessed for their ability to inhibit the growth of common strains of fungus, T. rubrum using a standardized procedure (CLSI M27-A2). Stock solutions of the test compounds and standards were prepared in DMSO at 1,600 μg/mL (T. rubrum). Eleven, serial, one-half dilutions of compounds were prepared in 96-well plates in RPMI+MOPS. The assay concentration ranges were 8-0.001 μg/mL (T. rubrum). Cell suspensions of T. rubrum were prepared and added to each well at concentrations of approximately 3.7×10^3 colony-forming-units per milliliter (cfu/mL). All testing was in duplicate. The inoculated plates were incubated for approximately 96 h at 35±1° C. At the completion of incubation the wells of each plate were evaluated visually for the presence of fungal growth. […] For voriconazole the MIC was the concentration which reduced T rubrum growth by 50% (per CLSI, M27-A2). For QC purposes C. krusei isolate ATCC 6258 (4.0×10^3 cfu/mL) was included in the VOR assay.

SMILES	MIC [1]	MIC (T. rubrum)	pest or weed control at 50 ppm [2]
OC(c1cncnc1)(c1ccc(F)cc1F)C(F)(F)c1ccc(C#Cc2ccc(OC(F)F)cc2)cn1 (racemic) [Example 21, 2-(5-((4-(Difluoromethoxy)phenyl)ethynyl)pyridin-2-yl)-1-(2,4-difluorophenyl)-2,2-difluoro-1-(pyrimidin-5-yl)ethanol]	≤ 0.5 µg/mL	–	80 to 100%
OC(c1cncnc1)(C1CC1)C(F)(F)c1ccc(C#Cc2ccc(F)cc2)cn1 (racemic) [Example 70, 1-Cyclopropyl-2,2-difluoro-2-(5-((4-fluorophenyl)ethynyl)pyridin-2-yl)-1-(pyrimidin-5-yl)ethanol]	≤ 0.5 µg/mL	–	80 to 100%
CC(C)(C)C(O)(c1cncnc1)C(F)(F)c1ccc(C#Cc2ccc(Cl)cc2)cn1 (racemic) [Example 62]	≤ 0.5 µg/mL	–	< 40%
N#Cc1ccc(C#Cc2ccc(C(F)(F)C(O)(c3ccc(Cl)cc3)c3cncnc3)nc2)cc1 (racemic) [Example 43]	≤ 0.5 µg/mL	–	60 to 79%
N#Cc1ccc(C#Cc2ccc(C(F)(F)C(O)(c3cncnc3)c3ccc(F)cc3F)nc2)c(F)c1 (racemic) [Example 12, 4-((6-(2-(2,4-Difluorophenyl)-1,1-difluoro-2-hydroxy-2-(pyrimidin-5-yl)ethyl)pyridin-3-yl)ethynyl)-3-fluorobenzonitrile]	≤ 0.5 µg/mL	–	80 to 100%
N#Cc1ccc(C#Cc2ccc(C(F)(F)C(O)(c3cncnc3)c3ccc(F)cc3F)nc2)cc1F (racemic) [Example 11]	≤ 0.5 µg/mL	–	80 to 100%
OCC#Cc1ccc(C(F)(F)C(O)(c2cncnc2)c2ccc(F)cc2F)nc1 (racemic) [Example 8, 3-(6-(2-(2,4-difluorophenyl)-1,1-difluoro-2-hydroxy-2-(pyrimidin-5-yl)ethyl)pyridin-3-yl)prop-2-yn-1-ol]	0.5 to 1.5 µg/mL (≈ 1.24 to 3.72 µM)	–	80 to 100%
OC(c1cncnc1)(c1ccc(F)cc1F)C(F)(F)c1ccc(C#Cc2ccc(F)cc2)cn1 (racemic) [Example 2, 1-(2,4-difluorophenyl)-2,2-difluoro-2-(5-((4-fluorophenyl)ethynyl)pyridin-2-yl)-1-(pyrimidin-5-yl)ethanol]	≤ 0.5 µg/mL	0.25 µg/mL (≈ 0.535 µM)	80 to 100%
Nc1ccc(C#Cc2ccc(C(F)(F)C(O)(c3ccc(Cl)cc3)c3cncnc3)nc2)cc1 (racemic) [Example 55]	0.5 to 1.5 µg/mL (≈ 1.08 to 3.24 µM)	–	< 40%
C[C@@H](c1ncncc1F)[C@](O)(Cn1cncn1)c1ccc(F)cc1F [Voriconazole, voriconazole, reference compound]	–	0.062 µg/mL (≈ 0.177 µM)	–
Nc1ccc(C#Cc2ccc(C(F)(F)C(O)(c3cncnc3)c3ccc(F)cc3F)nc2)cc1 (racemic) [Example 20, 2-(5-((4-Aminophenyl)ethynyl)pyridin-2-yl)-1-(2,4-difluorophenyl)-2,2-difluoro-1-(pyrimidin-5-yl)ethanol]	≤ 0.5 µg/mL	–	60 to 79%
N#Cc1ccc(C#Cc2ccc(C(F)(F)C(O)(c3cncnc3)c3ccc(F)cc3F)nc2)cc1 (racemic) [Example 5, 4-((6-(2-(2,4-difluorophenyl)-1,1-difluoro-2-hydroxy-2-(pyrimidin-5-yl)ethyl)pyridin-3-yl)ethynyl)benzonitrile]	≤ 0.5 µg/mL	–	80 to 100%

Continued, in another order:

MIC [1]	MIC (T. rubrum)	SMILES	pest or weed control at 50 ppm [2]
≤ 0.5 µg/mL	–	OC(c1cncnc1)(c1ccc(F)cc1F)C(F)(F)c1ccc(C#Cc2ccc(Cl)cc2)cn1 (racemic) [Example 13]	80 to 100%
0.5 to 1.5 µg/mL (≈ 0.982 to 2.94 µM)	–	OC(c1cncnc1)(c1ccc(F)cc1F)C(F)(F)c1ccc(-c2ccc(OC(F)(F)F)cc2)cn1 (racemic) [Example 3, 1-(2,4-difluorophenyl)-2,2-difluoro-1-(pyrimidin-5-yl)-2-(5-(4-(trifluoromethoxy)phenyl)pyridin-2-yl)ethanol]	< 40%
0.5 to 1.5 µg/mL (≈ 1.17 to 3.5 µM)	0.125 µg/mL (≈ 0.292 µM)	OC(c1cncnc1)(c1ccc(F)cc1F)C(F)(F)c1ccc(Br)cn1 (racemic) [Example 1, 2-(5-bromopyridin-2-yl)-1-(2,4-difluorophenyl)-2,2-difluoro-1-(pyrimidin-5-yl)ethanol]	–
≤ 0.5 µg/mL	–	COc1ccc(C#Cc2ccc(C(F)(F)C(O)(c3cncnc3)c3ccc(F)cc3F)nc2)cc1 (racemic) [Example 15]	60 to 79%
≤ 0.5 µg/mL	–	N#Cc1cccc(C#Cc2ccc(C(F)(F)C(O)(c3cncnc3)c3ccc(F)cc3F)nc2)c1 (racemic) [Example 18, 3-((6-(2-(2,4-Difluorophenyl)-1,1-difluoro-2-hydroxy-2-(pyrimidin-5-yl)ethyl)pyridin-3-yl)ethynyl)benzonitrile]	80 to 100%
≤ 0.5 µg/mL	–	OC(c1cncnc1)(c1ccc(F)cc1F)C(F)(F)c1ccc(OCc2ccc(Cl)cc2F)cn1 (racemic) [Example 10]	80 to 100%
0.5 to 1.5 µg/mL (≈ 1.02 to 3.05 µM)	–	OC(c1cncnc1)(c1ccc(F)cc1F)C(F)(F)c1ccc(OCc2ccc(F)c(F)c2)cn1 (racemic) [Example 60]	60 to 79%
0.5 to 1.5 µg/mL (≈ 0.985 to 2.95 µM)	–	OC(c1cncnc1)(c1ccc(F)cc1F)C(F)(F)c1ccc(OCc2ccc(Cl)c(F)c2)cn1 (racemic) [Example 51]	60 to 79%
0.5 to 1.5 µg/mL (≈ 1.05 to 3.15 µM)	–	OC(c1cncnc1)(c1ccc(F)cc1F)C(F)(F)c1ccc(Oc2cccc(Cl)c2)cn1 (racemic) [Example 47]	80 to 100%
0.5 to 1.5 µg/mL (≈ 1.06 to 3.18 µM)	–	COc1ccc(Oc2ccc(C(F)(F)C(O)(c3cncnc3)c3ccc(F)cc3F)nc2)cc1 (racemic) [Example 42]	80 to 100%
0.5 to 1.5 µg/mL (≈ 1.12 to 3.35 µM)	–	OC(c1cncnc1)(c1ccc(F)cc1F)C(F)(F)c1ccc(OCC(F)(F)F)cn1 (racemic) [Example 34]	80 to 100%
